Reference: patent US9139577B2, “Sulfoximine substituted quinazolines for pharmaceutical compositions” (Boehringer Ingelheim International GmbH, priority 2013, dated 2015)

Biological target: MNK1 (Homo sapiens (Human), UniProt Q9BUB5)
Test: MNK1 in vitro kinase assay (Assay 3), Z'-LYTE
Format: biochemical
Details: compound concentration of 1 μM, read-out: MNK1 % INH
Text: C. MNK1 In vitro Kinase Assay (Assay 3)
MNK1 Data can be obtained from the MNK1 Z′-LYTE® assay. The MNK1 Z′-LYTE® screening protocol and assay conditions are also described on www.invitrogen.com.
The assay is described as follows:
The Z′-LYTE® biochemical assay employs a fluorescence-based, coupled-enzyme format and is based on the differential sensitivity of phosphorylated and non-phosphorylated peptides to proteolytic cleavage. The peptide substrate is labeled with two fluorophores—one at each end—that make up a FRET pair.
In the primary reaction, the kinase transfers the gamma-phosphate of ATP to a single tyrosine, serine or threonine residue in a synthetic FRET-peptide. In the secondary reaction, a site-specific protease recognizes and cleaves non-phosphorylated FRET-peptides. Phosphorylation of FRET-peptides suppresses cleavage by the Development Reagent. Cleavage disrupts FRET between the donor (i.e., coumarin) and acceptor (i.e., fluorescein) fluorophores on the FRET-peptide, whereas uncleaved, phosphorylated FRET-peptides maintain FRET. A ratiometric method, which calculates the ratio (the Emission Ratio) of donor emission to acceptor emission after excitation of the donor fluorophore at 400 nm, is used to quantitate reaction progress, as shown in the equation below.
ASSAY SETUP: The inhibition of kinase activity of MNK1a was assessed using pre-activated GST-MNK1a. The 2×MKNK1 (MNK1) mixture is prepared in 50 mM HEPES pH 7.5, 0.01% BRIJ-35, 10 mM MgCl2, 4 mM MnCl2, 1 mM EGTA, 2 mM DTT.
The Test Compounds are screened in 1% DMSO (final) in the well.
All Peptide/Kinase Mixtures are diluted to a 2× working concentration in the MNK1 Kinase Buffer.
All ATP Solutions are diluted to a 4× working concentration in Kinase Buffer (50 mM HEPES pH 7.5, 0.01% BRIJ-35, 10 mM MgCl2, 1 mM EGTA).
Development Reagent Solution:
The Development Reagent is diluted in Development Buffer
1. 2.5 μL—4× Test Compound
2. 5 μL—2× Peptide/Kinase Mixture
5. 60-minute Kinase Reaction incubation at room temperature
6. 5 μl—Development Reagent Solution
8. 60-minute Development Reaction incubation at room temperature
9. Read on fluorescence plate reader and analyze the data
The following equations are used for each set of data points: […]
Correction for Background Fluorescence: FlSample-FlTCFl Ctl
% Phosphorylation (% Phos): 1−((Emission Ratio×F100%)−C100%)/((C0%−C100%)+[Emission Ratio×(F100%−F0%)])*100%
% Inhibition: 1−(% PhosSample/% Phos0% Inhibition Ctl)*100
Fl=Fluorescence Intensity
C100%=Average Coumarin emission signal of the 100% Phos. Control
C0%=Average Coumarin emission signal of the 0% Phos. Control
F100%=Average Fluorescein emission signal of the 100% Phos. Control
F0%=Average Fluorescein emission signal of the 0% Phos. Control
SelectScreen® Kinase Profiling Service uses XLfit from IDBS.

Sequence of MNK1 (Q9BUB5 other isoform, or with tags, fused parts or gaps): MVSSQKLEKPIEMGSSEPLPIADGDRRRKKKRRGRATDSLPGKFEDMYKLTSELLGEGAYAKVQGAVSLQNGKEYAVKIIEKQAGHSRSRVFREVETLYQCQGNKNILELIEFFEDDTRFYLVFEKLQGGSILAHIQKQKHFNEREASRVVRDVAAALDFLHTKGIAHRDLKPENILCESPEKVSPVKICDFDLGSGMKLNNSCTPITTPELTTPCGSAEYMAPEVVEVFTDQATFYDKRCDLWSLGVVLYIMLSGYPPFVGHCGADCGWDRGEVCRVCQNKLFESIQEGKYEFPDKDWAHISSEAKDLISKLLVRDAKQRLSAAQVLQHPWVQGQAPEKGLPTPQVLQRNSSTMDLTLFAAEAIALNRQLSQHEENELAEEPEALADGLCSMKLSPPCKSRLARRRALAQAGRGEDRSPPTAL

Row | SMILES | inhibition at 1 µM [%]
1 | Cc1cc(N=S(C)(C)=O)cc2ncnc(Nc3ccc(F)cc3O[C@H](C)C(=O)NCC(C)(C)O)c12 [Example 4.069] | 93
2 | Cc1cc(N=S2(=O)CCCC2)cc2ncnc(Nc3ccc(F)cc3O[C@H](C)C(=O)NCCO)c12 [Example 4.072] | 98
3 | Cc1cc(N=S(C)(C)=O)cc2ncnc(Nc3ccc(F)cc3O[C@H](C)C(=O)N=S(C)(C)=O)c12 [Example 4.022] | 85
4 | Cc1cc(C(C)Oc2cc(F)ccc2Nc2ncnc3cc(N=S(C)(C)=O)cc(F)c23)on1 (stereo not drawn) [Example 2.002] | 94
5 | Cc1cc(N=S2(=O)CCCC2)cc2ncnc(Nc3ccc(F)cc3O[C@H](C)C(=O)NCC(C)O)c12 (stereo partly drawn) [Example 4.008] | 97
6 | Cc1cc(N=S(C)(C)=O)cc2ncnc(Nc3ccc(F)cc3OC(C)Cn3ccnc3C)c12 (stereo not drawn) [Example 3.015] | 45
7 | CCOC(Oc1ncccc1Nc1ncnc2cc(N=S(C)(C)=O)cc(C)c12)C(F)(F)F (stereo not drawn) [Example 1.008] | 63
8 | CCC(=O)NC[C@@H](C)Oc1cc(F)ccc1Nc1ncnc2cc(N=S(C)(C)=O)cc(C)c12 [Example 5.012] | 61
9 | CC(Oc1cc(F)ccc1Nc1ncnc2cc(N=S(C)(C)=O)cc(F)c12)C(F)(F)F (stereo not drawn) [Example 1.020] | 80
10 | COCCNC(=O)[C@@H](C)Oc1cc(F)ccc1Nc1ncnc2cc(N=S(C)(C)=O)cc(C)c12 [Example 4.035] | 87
11 | Cc1cc(N=S(C)(C)=O)cc2ncnc(Nc3ccc(F)cc3OC(C)CF)c12 (stereo not drawn) [Example 1.015] | 100
12 | COc1cc(N=S(C)(C)=O)cc2ncnc(Nc3ccc(F)cc3OC(C)c3cc(C)no3)c12 (stereo not drawn) [Example 7.003] | 102
13 | CCN(CC)C(=O)[C@@H](C)Oc1cc(F)ccc1Nc1ncnc2cc(N=S(C)(C)=O)cc(C)c12 [Example 4.031] | 78
14 | C[C@@H](Oc1cc(F)ccc1Nc1ncnc2cc(N=S3(=O)CCCC3)cc(F)c12)C(=O)NCC(F)(F)F [Example 3.047] | 96
15 | CS(C)(=O)=Nc1cc(F)c2c(Nc3ccc(F)cc3OC(CF)CF)ncnc2c1 [Example 1.018] | 93
16 | Cc1cc(N=S2(=O)CCCC2)cc2ncnc(Nc3ccc(F)cc3O[C@H](C)C(=O)NCC3CCCO3)c12 (stereo partly drawn) [Example 4.001] | 97
17 | CCOC(Oc1cc(F)ccc1Nc1ncnc2cc(N=S(C)(C)=O)cc(C)c12)C(F)(F)F (stereo not drawn) [Example 1.023] | 65
18 | Cc1cc(N=S(C)(C)=O)cc2ncnc(Nc3ccc(F)cc3OC(C)C)c12 [Example 2.011] | 94
19 | Cc1cc(N=S2(=O)CCCC2)cc2ncnc(Nc3ccc(F)cc3O[C@H](C)C(=O)NC3CCC3)c12 [Example 4.015] | 102
20 | Cc1cc(N=S2(=O)CCCC2)cc2ncnc(Nc3ccc(F)cc3O[C@H](C)C(=O)N(C)C(C)C)c12 [Example 4.003] | 96
21 | C#CC(C)Oc1cc(F)ccc1Nc1ncnc2cc(N=S(C)(C)=O)cc(C)c12 (stereo not drawn) [Example 3.016] | 90
22 | Cc1cc(N=S2(=O)CCC2)cc2ncnc(Nc3ccc(F)cc3O[C@H](C)C(=O)N[C@@H](C)C(F)(F)F)c12 [Example 4.104] | 100
23 | Cc1cc(N=S(C)(C)=O)cc2ncnc(Nc3ccc(F)cc3OCC3(C#N)CCC3)c12 [Example 3.014] | 78
24 | Cc1cc(N=S(C)(C)=O)cc2ncnc(Nc3ccc(F)cc3O[C@H](C)CN)c12 [Example 3.018] | 92

Biological target: MNK2a (Homo sapiens (Human), UniProt Q9HBH9)
Sequence (Q9HBH9 whole entry): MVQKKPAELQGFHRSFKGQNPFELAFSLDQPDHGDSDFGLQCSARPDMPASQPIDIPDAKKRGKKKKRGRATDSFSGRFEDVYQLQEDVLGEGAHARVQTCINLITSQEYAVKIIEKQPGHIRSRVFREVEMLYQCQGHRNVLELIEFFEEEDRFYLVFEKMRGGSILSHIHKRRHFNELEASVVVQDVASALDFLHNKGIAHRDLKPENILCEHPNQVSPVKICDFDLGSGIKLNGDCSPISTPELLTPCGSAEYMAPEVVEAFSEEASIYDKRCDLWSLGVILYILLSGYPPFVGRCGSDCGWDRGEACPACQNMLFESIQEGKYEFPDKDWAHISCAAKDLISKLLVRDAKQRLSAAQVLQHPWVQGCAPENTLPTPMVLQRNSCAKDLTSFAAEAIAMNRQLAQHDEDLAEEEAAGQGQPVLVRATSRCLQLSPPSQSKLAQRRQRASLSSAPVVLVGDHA
Test: MNK2a in vitro kinase assay (Assay 2), ADP-Glo
Format: biochemical
Details: read-out: MNK2 IC50

Row | SMILES | IC50 [nM]
25 | Cc1cc(N=S(C)(C)=O)cc2ncnc(Nc3ccc(F)cc3O[C@H](C)C(=O)NCC(C)(C)O)c12 [Example 4.069] | 6
26 | Cc1cc(N=S2(=O)CCCC2)cc2ncnc(Nc3ccc(F)cc3O[C@H](C)C(=O)NCCO)c12 [Example 4.072] | 3
27 | Cc1cc(N=S(C)(C)=O)cc2ncnc(Nc3ccc(F)cc3O[C@H](C)C(=O)N=S(C)(C)=O)c12 [Example 4.022] | 10
28 | Cc1cc(C(C)Oc2cc(F)ccc2Nc2ncnc3cc(N=S(C)(C)=O)cc(F)c23)on1 (stereo not drawn) [Example 2.002] | 6
29 | Cc1cc(N=S2(=O)CCCC2)cc2ncnc(Nc3ccc(F)cc3O[C@H](C)C(=O)NCC(C)O)c12 (stereo partly drawn) [Example 4.008] | 2
30 | Cc1cc(N=S(C)(C)=O)cc2ncnc(Nc3ccc(F)cc3OC(C)Cn3ccnc3C)c12 (stereo not drawn) [Example 3.015] | 3
31 | CCOC(Oc1ncccc1Nc1ncnc2cc(N=S(C)(C)=O)cc(C)c12)C(F)(F)F (stereo not drawn) [Example 1.008] | 8
32 | CCC(=O)NC[C@@H](C)Oc1cc(F)ccc1Nc1ncnc2cc(N=S(C)(C)=O)cc(C)c12 [Example 5.012] | 56
33 | CC(Oc1cc(F)ccc1Nc1ncnc2cc(N=S(C)(C)=O)cc(F)c12)C(F)(F)F (stereo not drawn) [Example 1.020] | 7
34 | COCCNC(=O)[C@@H](C)Oc1cc(F)ccc1Nc1ncnc2cc(N=S(C)(C)=O)cc(C)c12 [Example 4.035] | 66
35 | Cc1cc(N=S(C)(C)=O)cc2ncnc(Nc3ccc(F)cc3OC(C)CF)c12 (stereo not drawn) [Example 1.015] | 54
36 | COc1cc(N=S(C)(C)=O)cc2ncnc(Nc3ccc(F)cc3OC(C)c3cc(C)no3)c12 (stereo not drawn) [Example 7.003] | 2
37 | CCN(CC)C(=O)[C@@H](C)Oc1cc(F)ccc1Nc1ncnc2cc(N=S(C)(C)=O)cc(C)c12 [Example 4.031] | 8
38 | C[C@@H](Oc1cc(F)ccc1Nc1ncnc2cc(N=S3(=O)CCCC3)cc(F)c12)C(=O)NCC(F)(F)F [Example 3.047] | 1
39 | CS(C)(=O)=Nc1cc(F)c2c(Nc3ccc(F)cc3OC(CF)CF)ncnc2c1 [Example 1.018] | 6
40 | Cc1cc(N=S2(=O)CCCC2)cc2ncnc(Nc3ccc(F)cc3O[C@H](C)C(=O)NCC3CCCO3)c12 (stereo partly drawn) [Example 4.001] | 5
41 | CCOC(Oc1cc(F)ccc1Nc1ncnc2cc(N=S(C)(C)=O)cc(C)c12)C(F)(F)F (stereo not drawn) [Example 1.023] | 8
42 | Cc1cc(N=S(C)(C)=O)cc2ncnc(Nc3ccc(F)cc3OC(C)C)c12 [Example 2.011] | 2
43 | Cc1cc(N=S2(=O)CCCC2)cc2ncnc(Nc3ccc(F)cc3O[C@H](C)C(=O)NC3CCC3)c12 [Example 4.015] | 2
44 | Cc1cc(N=S2(=O)CCCC2)cc2ncnc(Nc3ccc(F)cc3O[C@H](C)C(=O)N(C)C(C)C)c12 [Example 4.003] | 2
45 | C#CC(C)Oc1cc(F)ccc1Nc1ncnc2cc(N=S(C)(C)=O)cc(C)c12 (stereo not drawn) [Example 3.016] | 2
46 | Cc1cc(N=S2(=O)CCC2)cc2ncnc(Nc3ccc(F)cc3O[C@H](C)C(=O)N[C@@H](C)C(F)(F)F)c12 [Example 4.104] | 1
47 | Cc1cc(N=S(C)(C)=O)cc2ncnc(Nc3ccc(F)cc3OCC3(C#N)CCC3)c12 [Example 3.014] | 8
48 | Cc1cc(N=S(C)(C)=O)cc2ncnc(Nc3ccc(F)cc3O[C@H](C)CN)c12 [Example 3.018] | 1
